US20100010092A1, “USE OF MODAFINIL TO TREAT RESTLESS LEG SYNDROME” (Arless Ltd., priority 2006, published 2010)
Structures can show the parent of a compound that is named as a salt.

Legend:
[1] = cited from earlier work; for share of trough concentration (Cminss) of circulating modafinil: after once daily dosing of racemic modafinil
[2] = doses up to 400 mg per day, given as a single dose; cited from earlier work
[3] = system: PLMD and RLS and Primary snoring; test: Case reports: patient with sleep study diagnosed PLMD, RLS and Primary snoring taking the drug orally; format: in vivo, human; conditions: for RLS and PLMD symptoms on chronic use: symptoms returned immediately after stopping
Protocol: An otherwise healthy non-obese person with sleep study diagnosed PLMD and RLS and Primary snoring without apnea, 61 kg, took Requip, ropinirole HCL from 0.25 to 0.75 mg orally per day for PLMS and RLS for a period of over 8-12 months. PLM were severe enough to occasionally awaken them from sleep. […] Multiple attempts at gaining relief were made over a period of 8-12 months. These attempts failed. […]

[4] = system: restless leg syndrome and PLMS, and Primary snoring; test: Overnight polysomnographic sleep study, evening dosage; format: in vivo, human; conditions: oral 50 mg in the evening, versus baseline without drug
Source text: A non-obese subject with no outstanding medical history other than restless leg syndrome and PLMS of 6 years duration, and Primary snoring, 60 kg, was entered into an overnight sleep study in a specialist hospital sleep disorder center. […] Snoring as represented by the Snore Index was reduced 70%.

[5] = system: RLS; conditions: moderate to severe RLS; cited from earlier work
[6] = 50 mg by mouth 1-3 hours prior to bedtime
[7] = 50 mg by mouth between 8 am and noon
[8] = 50 mg or 25 mg by mouth in the morning

NC(=O)C[S@@+]([O-])C(c1ccccc1)c1ccccc1 [I-isomer, r-2-((diphenylmethyl)sulfinyl)-acetamide]
share of trough concentration (Cminss) of circulating modafinil [1]: 90% | total exposure at steady state relative to that for the d-isomer ([1]; taken orally, steady state): approximately three

NC(=O)C[S+]([O-])C(c1ccccc1)c1ccccc1 (racemic) [modafinil, 2-[(diphenylmethyl)sulfiny]acetamide]
tolerability [2]: well tolerated | symptoms ([3]; 25 mg as needed, evening dosage): either completely relieved or greatly diminished | removal of symptoms at lower dosage ([3]; 25 mg by mouth in the morning): failed to entirely remove symptoms | limb movements and the urge to move the limb and associated sensations while awake [3, 6]: greatly reduced | time until limb movements and urge were greatly reduced [3, 6]: approximately 90 minutes | leg jerks during sleep observed by partner [3, 7]: no leg jerks during sleep were observed | limb movements and snoring while asleep noticed by partner [3, 7]: absence of limb movements and snoring | restfulness noted by patient [3, 7]: increased restfulness | urge to move legs in the evenings [3, 7]: No urge to move legs in the evenings occurred | limb movements and the urge to move the limb and associated sensations while awake [3, 8]: greatly reduced | snoring noted by sleep partner [3, 8]: marked decrease in snoring | leg jerks during sleep observed by partner ([3]; 100 mg by mouth in the morning): no leg jerks during sleep were observed | limb movements and snoring while asleep noticed by partner ([3]; 100 mg by mouth in the morning): absence of limb movements and snoring | restfulness noted by patient ([3]; 100 mg by mouth in the morning): increased restfulness | urge to move legs in the evenings ([3]; 100 mg by mouth in the morning): No urge to move legs in the evenings occurred | RLS and PLMD symptoms on chronic use ([3]; evening dosage, every day for periods of 5 to 7 days): periods free from RLS and PLMD symptoms | RLS and PLMD symptoms on chronic use ([3]; morning dosage 50 or 25 mg, every day for periods of up to 11 days): periods free from RLS and PLMD symptoms | PLMs during sleep [4]: not detected | reduction of snoring as represented by the Snore Index [4]: 70%

CCCN(CCC)CCc1cccc2c1CC(=O)N2 [Requip, ropinirole HCL]
additional complications reported by patients [5]: constipation and daytime sleepiness | PLMS according to the partner ([3]; ropinirole HCL 0.25 to 0.75 mg orally per day, over 8-12 months): PLMS continued | relief of RLS/PLMS symptoms ([3]; ropinirole HCL 0.25 to 0.75 mg orally per day, over 8-12 months, person): did not relieve symptoms

NC(=O)C[S+]([O-])C(c1ccccc1)c1ccccc1 (single isomer, unassigned) [d-isomer]
share of trough concentration (Cminss) of circulating modafinil [1]: 10%
